PubChem BioAssay (NCI)
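In this assay, cells in 96-well plates receive the compound at five concentrations for 48 hours. Endpoints are linearly interpolated between the surrounding concentrations. The concentration for full growth arrest is given as TGI.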

Tests used:
Experiment in all cases: NCI-60 cell line screen, 48 h
K-562 leukemia = tested on: K-562 leukemia
KM12 colon = tested on: KM12 colon
SNB-75 CNS = tested on: SNB-75 CNS
MDA-MB-231 breast = tested on: MDA-MB-231 breast
BT-549 breast = tested on: BT-549 breast
MALME-3M melanoma = tested on: MALME-3M melanoma
SK-OV-3 ovarian = tested on: SK-OV-3 ovarian
M14 melanoma = tested on: M14 melanoma
CCRF-CEM leukemia = tested on: CCRF-CEM leukemia
NCI/ADR-RES ovarian = tested on: NCI/ADR-RES ovarian
OVCAR-3 ovarian = tested on: OVCAR-3 ovarian
SN12C renal = tested on: SN12C renal
RXF 393 renal = tested on: RXF 393 renal
NCI-H460 lung = tested on: NCI-H460 lung
A549 NSCLC = tested on: A549 NSCLC
HT29 colon = tested on: HT29 colon
COLO 205 colon = tested on: COLO 205 colon
SK-MEL-28 melanoma = tested on: SK-MEL-28 melanoma
PC-3 prostate = tested on: PC-3 prostate
IGROV1 ovarian = tested on: IGROV1 ovarian
U251 CNS = tested on: U251 CNS
NCI-H226 lung = tested on: NCI-H226 lung
LOX IMVI melanoma = tested on: LOX IMVI melanoma
OVCAR-4 ovarian = tested on: OVCAR-4 ovarian
MDA-N = tested on: MDA-N
HCT-15 colon = tested on: HCT-15 colon
T-47D breast = tested on: T-47D breast
EKVX NSCLC = tested on: EKVX NSCLC
786-0 renal = tested on: 786-0 renal
SK-MEL-2 melanoma = tested on: SK-MEL-2 melanoma
HCC-2998 colon = tested on: HCC-2998 colon
HOP-62 NSCLC = tested on: HOP-62 NSCLC
ACHN renal = tested on: ACHN renal
MDA-MB-435 = tested on: MDA-MB-435
A498 renal = tested on: A498 renal
UO-31 renal = tested on: UO-31 renal
UACC-62 melanoma = tested on: UACC-62 melanoma
NCI-H23 lung = tested on: NCI-H23 lung
SW-620 colon = tested on: SW-620 colon
RPMI-8226 leukemia = tested on: RPMI-8226 leukemia
UACC-257 melanoma = tested on: UACC-257 melanoma
MOLT-4 leukemia = tested on: MOLT-4 leukemia
SR leukemia = tested on: SR leukemia
HCT-116 colon = tested on: HCT-116 colon
OVCAR-5 ovarian = tested on: OVCAR-5 ovarian
SNB-19 CNS = tested on: SNB-19 CNS
TK-10 renal = tested on: TK-10 renal
SF-268 CNS = tested on: SF-268 CNS
SK-MEL-5 melanoma = tested on: SK-MEL-5 melanoma
MCF7 breast = tested on: MCF7 breast
DU-145 prostate = tested on: DU-145 prostate
NCI-H522 lung = tested on: NCI-H522 lung
HS 578T breast = tested on: HS 578T breast
SF-295 CNS = tested on: SF-295 CNS
CAKI-1 renal = tested on: CAKI-1 renal
OVCAR-8 ovarian = tested on: OVCAR-8 ovarian
HOP-92 NSCLC = tested on: HOP-92 NSCLC
SF-539 CNS = tested on: SF-539 CNS
HL-60(TB) leukemia = tested on: HL-60(TB) leukemia

Structure (SMILES): COc1cc(C)c(S(=O)(=O)N(CCCN)OCCCN)c(C)c1C
- TGI (K-562 leukemia): 31.7 µM
- TGI (KM12 colon): > 100 µM
- TGI (SNB-75 CNS): > 100 µM
- TGI (MDA-MB-231 breast): 80.8 µM
- TGI (BT-549 breast): 66.5 µM
- TGI (MALME-3M melanoma): 42.8 µM
- TGI (SK-OV-3 ovarian): > 100 µM
- TGI (M14 melanoma): 65.2 µM
- TGI (CCRF-CEM leukemia): > 100 µM
- TGI (NCI/ADR-RES ovarian): > 100 µM
- TGI (OVCAR-3 ovarian): > 100 µM
- TGI (SN12C renal): > 100 µM
- TGI (RXF 393 renal): 90 µM
- TGI (NCI-H460 lung): > 100 µM
- TGI (A549 NSCLC): > 100 µM
- TGI (HT29 colon): > 100 µM
- TGI (COLO 205 colon): 41.2 µM
- TGI (SK-MEL-28 melanoma): > 100 µM
- TGI (PC-3 prostate): 77.3 µM
- TGI (IGROV1 ovarian): > 100 µM
- TGI (U251 CNS): > 100 µM
- TGI (NCI-H226 lung): > 100 µM
- TGI (LOX IMVI melanoma): 84.6 µM
- TGI (OVCAR-4 ovarian): > 100 µM
- TGI (MDA-N): > 100 µM
- TGI (HCT-15 colon): > 100 µM
- TGI (T-47D breast): > 100 µM
- TGI (EKVX NSCLC): > 100 µM
- TGI (786-0 renal): > 100 µM
- TGI (SK-MEL-2 melanoma): 51.5 µM
- TGI (HCC-2998 colon): 57.1 µM
- TGI (HOP-62 NSCLC): > 100 µM
- TGI (ACHN renal): > 100 µM
- TGI (MDA-MB-435): > 100 µM
- TGI (A498 renal): > 100 µM
- TGI (UO-31 renal): > 100 µM
- TGI (UACC-62 melanoma): > 100 µM
- TGI (NCI-H23 lung): > 100 µM
- TGI (SW-620 colon): > 100 µM
- TGI (RPMI-8226 leukemia): 49 µM
- TGI (UACC-257 melanoma): 62.3 µM
- TGI (MOLT-4 leukemia): 31.4 µM
- TGI (SR leukemia): 38.6 µM
- TGI (HCT-116 colon): > 100 µM
- TGI (OVCAR-5 ovarian): > 100 µM
- TGI (SNB-19 CNS): > 100 µM
- TGI (TK-10 renal): > 100 µM
- TGI (SF-268 CNS): > 100 µM
- TGI (SK-MEL-5 melanoma): 53 µM
- TGI (MCF7 breast): 53.1 µM
- TGI (DU-145 prostate): > 100 µM
- TGI (NCI-H522 lung): 51.7 µM
- TGI (HS 578T breast): 65.2 µM
- TGI (SF-295 CNS): > 100 µM
- TGI (CAKI-1 renal): > 100 µM
- TGI (OVCAR-8 ovarian): > 100 µM

Structure (SMILES): c1ccc2c(c1)[C@@H]1O[C@@H]1[C@@]13O[C@@]21[C@H]1O[C@H]1c1ccccc13
- TGI (K-562 leukemia): 41.7 µM
- TGI (KM12 colon): 29.2 µM
- TGI (SNB-75 CNS): 27.2 µM
- TGI (MDA-MB-231 breast): 33.6 µM
- TGI (BT-549 breast): 30.3 µM
- TGI (HOP-92 NSCLC): 23.4 µM
- TGI (SF-539 CNS): 34.9 µM
- TGI (MALME-3M melanoma): 26.3 µM
- TGI (SK-OV-3 ovarian): 52.2 µM
- TGI (M14 melanoma): 33.6 µM
- TGI (CCRF-CEM leukemia): 24.3 µM
- TGI (NCI/ADR-RES ovarian): 39.6 µM
- TGI (OVCAR-3 ovarian): 32.1 µM
- TGI (SN12C renal): 38.2 µM
- TGI (RXF 393 renal): 25.7 µM
- TGI (NCI-H460 lung): 74.9 µM
- TGI (A549 NSCLC): 47 µM
- TGI (HT29 colon): 51.9 µM
- TGI (COLO 205 colon): 32.8 µM
- TGI (SK-MEL-28 melanoma): 41.2 µM
- TGI (PC-3 prostate): 30 µM
- TGI (IGROV1 ovarian): 29.3 µM
- TGI (U251 CNS): 28.2 µM
- TGI (NCI-H226 lung): 31.3 µM
- TGI (LOX IMVI melanoma): 27.7 µM
- TGI (OVCAR-4 ovarian): 26.8 µM
- TGI (MDA-N): 32.6 µM
- TGI (HCT-15 colon): 48.8 µM
- TGI (T-47D breast): 57.8 µM
- TGI (EKVX NSCLC): 31.9 µM
- TGI (786-0 renal): 30.1 µM
- TGI (SK-MEL-2 melanoma): 37.5 µM
- TGI (HCC-2998 colon): 35.1 µM
- TGI (HOP-62 NSCLC): 30.8 µM
- TGI (ACHN renal): 28.9 µM
- TGI (MDA-MB-435): 28.7 µM
- TGI (A498 renal): 30.7 µM
- TGI (UO-31 renal): 51.1 µM
- TGI (UACC-62 melanoma): 28.1 µM
- TGI (NCI-H23 lung): 40.1 µM
- TGI (SW-620 colon): 39.5 µM
- TGI (RPMI-8226 leukemia): 33.7 µM
- TGI (UACC-257 melanoma): 37.2 µM
- TGI (MOLT-4 leukemia): > 100 µM
- TGI (HCT-116 colon): 25.2 µM
- TGI (OVCAR-5 ovarian): 34.8 µM
- TGI (SNB-19 CNS): 40.1 µM
- TGI (TK-10 renal): 62.2 µM
- TGI (SF-268 CNS): 28.3 µM
- TGI (SK-MEL-5 melanoma): 26.7 µM
- TGI (HL-60(TB) leukemia): 41 µM
- TGI (MCF7 breast): > 100 µM
- TGI (DU-145 prostate): 29.2 µM
- TGI (NCI-H522 lung): 25.4 µM
- TGI (HS 578T breast): 28.3 µM
- TGI (SF-295 CNS): 30.1 µM
- TGI (CAKI-1 renal): 23.2 µM
- TGI (OVCAR-8 ovarian): 39.6 µM

Structure (SMILES): CC(=O)c1c2c(cc3c1CCC3)CCC2
- TGI (K-562 leukemia): > 100 µM
- TGI (KM12 colon): > 100 µM
- TGI (SNB-75 CNS): > 100 µM
- TGI (MDA-MB-231 breast): > 100 µM
- TGI (BT-549 breast): > 100 µM
- TGI (SF-539 CNS): > 100 µM
- TGI (MALME-3M melanoma): > 100 µM
- TGI (SK-OV-3 ovarian): > 100 µM
- TGI (M14 melanoma): > 100 µM
- TGI (CCRF-CEM leukemia): > 100 µM
- TGI (NCI/ADR-RES ovarian): > 100 µM
- TGI (OVCAR-3 ovarian): > 100 µM
- TGI (SN12C renal): > 100 µM
- TGI (NCI-H460 lung): > 100 µM
- TGI (A549 NSCLC): > 100 µM
- TGI (HT29 colon): > 100 µM
- TGI (COLO 205 colon): > 100 µM
- TGI (SK-MEL-28 melanoma): > 100 µM
- TGI (PC-3 prostate): > 100 µM
- TGI (IGROV1 ovarian): > 100 µM
- TGI (U251 CNS): > 100 µM
- TGI (NCI-H226 lung): > 100 µM
- TGI (LOX IMVI melanoma): > 100 µM
- TGI (OVCAR-4 ovarian): > 100 µM
- TGI (MDA-N): > 100 µM
- TGI (HCT-15 colon): > 100 µM
- TGI (T-47D breast): 46.8 µM
- TGI (EKVX NSCLC): > 100 µM
- TGI (786-0 renal): > 100 µM
- TGI (SK-MEL-2 melanoma): > 100 µM
- TGI (HCC-2998 colon): > 100 µM
- TGI (HOP-62 NSCLC): > 100 µM
- TGI (ACHN renal): > 100 µM
- TGI (MDA-MB-435): > 100 µM
- TGI (A498 renal): > 100 µM
- TGI (UO-31 renal): > 100 µM
- TGI (UACC-62 melanoma): > 100 µM
- TGI (NCI-H23 lung): > 100 µM
- TGI (SW-620 colon): > 100 µM
- TGI (RPMI-8226 leukemia): > 100 µM
- TGI (UACC-257 melanoma): > 100 µM
- TGI (MOLT-4 leukemia): > 100 µM
- TGI (SR leukemia): > 100 µM
- TGI (HCT-116 colon): > 100 µM
- TGI (OVCAR-5 ovarian): > 100 µM
- TGI (SNB-19 CNS): > 100 µM
- TGI (TK-10 renal): > 100 µM
- TGI (SF-268 CNS): > 100 µM
- TGI (SK-MEL-5 melanoma): > 100 µM
- TGI (HL-60(TB) leukemia): > 100 µM
- TGI (MCF7 breast): > 100 µM
- TGI (DU-145 prostate): > 100 µM
- TGI (NCI-H522 lung): > 100 µM
- TGI (HS 578T breast): > 100 µM
- TGI (SF-295 CNS): > 100 µM
- TGI (CAKI-1 renal): > 100 µM
- TGI (OVCAR-8 ovarian): > 100 µM
